Laboratory results published in article PMC3748103, “Characterization of FKGK18 as Inhibitor of Group VIA Ca^2+-Independent Phospholipase A2 (iPLA2β): Candidate Drug for Preventing Beta-Cell Apoptosis and Diabetes” (PLoS ONE, 2013).

Biological target: T1, iPLA2β (Group VIA Ca^2+-independent phospholipase A2) (Rattus norvegicus, UniProt P97570)
T1 construct: gene Pla2g6; iPLA2β overexpressed in INS-1 insulinoma cells (OE), cytosol
T1 sequence (P97570 1-807): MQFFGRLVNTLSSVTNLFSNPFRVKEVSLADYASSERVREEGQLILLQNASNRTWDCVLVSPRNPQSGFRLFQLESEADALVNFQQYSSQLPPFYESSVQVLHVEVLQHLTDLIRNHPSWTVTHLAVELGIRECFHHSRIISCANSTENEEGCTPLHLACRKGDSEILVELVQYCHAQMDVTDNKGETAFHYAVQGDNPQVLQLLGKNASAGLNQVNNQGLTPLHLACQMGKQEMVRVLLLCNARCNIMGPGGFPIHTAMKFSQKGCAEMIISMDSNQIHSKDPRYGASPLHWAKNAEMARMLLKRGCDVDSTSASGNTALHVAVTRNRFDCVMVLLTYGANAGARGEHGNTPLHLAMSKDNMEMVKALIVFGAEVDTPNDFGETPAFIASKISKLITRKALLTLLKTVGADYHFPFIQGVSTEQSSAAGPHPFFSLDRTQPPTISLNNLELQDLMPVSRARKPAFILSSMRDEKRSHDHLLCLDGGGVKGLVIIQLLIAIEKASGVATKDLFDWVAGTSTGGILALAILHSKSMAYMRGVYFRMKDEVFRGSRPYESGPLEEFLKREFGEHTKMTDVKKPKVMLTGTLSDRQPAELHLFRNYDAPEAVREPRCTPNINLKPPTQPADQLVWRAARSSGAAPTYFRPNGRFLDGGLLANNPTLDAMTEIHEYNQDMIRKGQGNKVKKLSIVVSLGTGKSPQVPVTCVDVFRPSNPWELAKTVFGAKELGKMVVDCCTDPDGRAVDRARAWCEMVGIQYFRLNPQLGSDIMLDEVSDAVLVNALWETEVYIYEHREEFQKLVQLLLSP
Assay: radioactive PLA2 activity assay ([…]-PAPC) in cytosol of iPLA2β-overexpressing INS-1 cells
Type: biochemical

IC50	Structure (SMILES)
~50 nM	O=C(CCCCc1ccc2ccccc2c1)C(F)(F)F [FKGK18, 1,1,1-trifluoro-6-(naphthalen-2-yl)hexan-2-one]
~3000 nM	O=C1O/C(=C/Br)CC[C@@H]1c1cccc2ccccc12 [R-BEL, (E)-6-(bromo-methylene) tetrahydro-3-(1-naphthalenyl)-2H-pyran-2-one]
